Data taken from PubChem BioAssay AID1845206 (Molecular Pharmacology Branch, DTP, NCI, 2023).
pIC50: −log10 of the molar value. Calls of active or inactive are those of the source. Rule for the calls: active = viability on the fitted dose curve at most 10% of control; inactive = the rest.

Tested on: NCI-H1618 multicellular tumor spheroid viability
Experiment: Anticancer human tumor NCI-H1618 cell line growth inhibition;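 note: spheroids exposed to agents for 7 days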
Settings: for pIC50: curve of first compound; for viability, T/C: stronger effect = lower value
Procedure, shortened: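 Single agents and combinations were tested on spheroids built from tumor cells plus HUVEC and hMSC, at half-log dilutions starting at or near clinical Cmax, else 10 microM; final DMSO 0.25% (v/v).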

[1] = second compound 1 µM, first compound 0.0316 µM
[2] = second compound 1 µM, first compound 0.1 µM
[3] = second compound 1 µM, first compound 0.316 µM
[4] = second compound 1 µM, first compound 1 µM
[5] = second compound 1 µM, first compound 3.16 µM
[6] = second compound 1 µM, first compound 10 µM
[7] = second compound 3.16 µM, first compound 0.0316 µM
[8] = second compound 3.16 µM, first compound 0.1 µM
[9] = second compound 3.16 µM, first compound 0.316 µM
[10] = second compound 3.16 µM, first compound 1 µM
[11] = second compound 3.16 µM, first compound 3.16 µM
[12] = second compound 3.16 µM, first compound 10 µM
[13] = second compound 10 µM, first compound 0.0316 µM
[14] = second compound 10 µM, first compound 0.1 µM
[15] = second compound 10 µM, first compound 0.316 µM
[16] = second compound 10 µM, first compound 1 µM
[17] = second compound 10 µM, first compound 3.16 µM
[18] = second compound 10 µM, first compound 10 µM
[19] = second compound 31.6 µM, first compound 0.0316 µM
[20] = second compound 31.6 µM, first compound 0.1 µM
[21] = second compound 31.6 µM, first compound 0.316 µM
[22] = second compound 31.6 µM, first compound 1 µM
[23] = second compound 31.6 µM, first compound 3.16 µM
[24] = second compound 31.6 µM, first compound 10 µM
[25] = second compound 100 µM, first compound 0.0316 µM
[26] = second compound 100 µM, first compound 0.1 µM
[27] = second compound 100 µM, first compound 0.316 µM
[28] = second compound 100 µM, first compound 1 µM
[29] = second compound 100 µM, first compound 3.16 µM
[30] = second compound 100 µM, first compound 10 µM

CC1COCCN1c1cc(-c2ccnn2C)c2ccnc(-c3ccn[nH]3)c2n1 (stereo not given) + Cn1nnc2c(C(N)=O)ncn2c1=O
inactive: viability, T/C [7] 10.3%
> 7.50: pIC50 (second compound 1 µM) | pIC50 (second compound 3.16 µM) | pIC50 (second compound 10 µM) | pIC50 (second compound 31.6 µM) | pIC50 (second compound 100 µM)
active: viability, T/C [1] 3.35% | viability, T/C [2] 3.94% | viability, T/C [3] 1.49% | viability, T/C [4] 2.09% | viability, T/C [5] 1.02% | viability, T/C [6] 3.48% | viability, T/C [8] 1.64% | viability, T/C [9] 1.41% | viability, T/C [10] 1.67% | viability, T/C [11] 1.26% | viability, T/C [12] 2.12% | viability, T/C [13] 1.82% | viability, T/C [14] 13.4% | viability, T/C [15] 1.48% | viability, T/C [16] 1.19% | viability, T/C [17] 1.65% | viability, T/C [18] 2.14% | viability, T/C [19] 1.23% | viability, T/C [20] 1.26% | viability, T/C [21] 1.34% | viability, T/C [22] 1.03% | viability, T/C [23] 1.36% | viability, T/C [24] 1.55% | viability, T/C [25] 1.42% | viability, T/C [26] 1.23% | viability, T/C [27] 1.48% | viability, T/C [28] 1.42% | viability, T/C [29] 13.7% | viability, T/C [30] 1.05%

COc1cc(C)[nH]c(=O)c1CN1CCc2c(Cl)cc(C(OC)C3COC3)c(Cl)c2C1=O (stereo not given) + Cn1nnc2c(C(N)=O)ncn2c1=O
active: viability, T/C [13] 3.15% | viability, T/C [14] 6.34% | viability, T/C [15] 4.96% | viability, T/C [16] 18.4% | viability, T/C [17] 3.33% | viability, T/C [18] 4.36% | viability, T/C [19] 6.62% | viability, T/C [20] 13.3% | viability, T/C [21] 3.61% | viability, T/C [22] 5.57% | viability, T/C [23] 10.4% | viability, T/C [24] 13%
inactive: outcome [1] | viability, T/C [2] 77.7% | outcome [3] | outcome [4] | viability, T/C [5] 69.6% | viability, T/C [6] 72.8% | viability, T/C [7] 14.2% | viability, T/C [8] 16.2% | viability, T/C [9] 20.3% | viability, T/C [10] 10.3% | viability, T/C [11] 15.8% | viability, T/C [12] 15.4% | viability, T/C [25] 45.3% | viability, T/C [26] 41.6% | viability, T/C [27] 29.8% | viability, T/C [28] 39.6% | viability, T/C [29] 18.3% | viability, T/C [30] 45.1%
> 7.50: pIC50 (second compound 3.16 µM) | pIC50 (second compound 10 µM) | pIC50 (second compound 31.6 µM) | pIC50 (second compound 100 µM)
< 5.00: pIC50 (second compound 1 µM)

COc1ccc([C@@H](O)c2cc(-c3ncnc4cc(N5CCOCC5)ccc34)c(F)cc2Cl)nn1 + Cn1nnc2c(C(N)=O)ncn2c1=O
5.27: pIC50 (second compound 1 µM)
inactive: viability, T/C [1] 86.8% | viability, T/C [2] 92% | viability, T/C [3] 95.2% | outcome [4] | viability, T/C [5] 72.6% | viability, T/C [6] 24.2% | viability, T/C [7] 26.6% | viability, T/C [8] 27.2% | viability, T/C [9] 17.2% | viability, T/C [10] 22.2% | viability, T/C [11] 5.58% | viability, T/C [19] 8.19% | viability, T/C [20] 12.4% | viability, T/C [21] 14.6% | viability, T/C [22] 17.1% | viability, T/C [23] 5.03% | viability, T/C [24] 5.45% | viability, T/C [25] 20.6% | viability, T/C [26] 34.8% | viability, T/C [27] 63.5% | viability, T/C [28] 35.5% | viability, T/C [29] 20.1% | viability, T/C [30] 12.2%
active: viability, T/C [12] 6.14% | viability, T/C [13] 3.36% | viability, T/C [14] 5.1% | viability, T/C [15] 5.03% | viability, T/C [16] 5.47% | viability, T/C [17] 5.06% | viability, T/C [18] 5.28%
> 7.50: pIC50 (second compound 3.16 µM) | pIC50 (second compound 10 µM) | pIC50 (second compound 31.6 µM) | pIC50 (second compound 100 µM)
